Reference: patent publication US5055459A, “Selective elimination of malignant cells from bone marrow by bis (acyloxy) propylphosphoramidates” (Board of Regents, The University of Texas, priority 1989, dated 1991)
In brackets after ≈: the same amount, converted by molar mass. Where two headings read alike, the source gives them in different places. Values belong to the molecule of their own block, whether it stands above or below them.

Experiments:
[1] = system: L1210 lymphatic leukemia cells; assay: cells; assay type: cell-based, murine
L1210 leukemia cells [2] = assay: cells; assay type: cell-based, murine; conditions: Mus musculus
L1210 leukemia cells [3] = assay: Growth inhibition of L1210 leukemia cells in vitro by nucleoside analogues (Table 7); assay type: cell-based, murine; conditions: Mus musculus, growth inhibition by 50%, exposure 96 h, then 72 h drug-free culture
Method: The effectiveness against growth of L1210 cells of 1 these nucleoside analogs was tested and the growth inhibition shown in Table 7.
^a Exponentially growing cells were exposed to varying drug
concentrations for 96 h at 37° C. The cells were then centrifuged,
resuspended, and cultured in drugfree medium for 72 h.
^b The drug concentration that inhibited cell growth by 50% compared
to untreated control cultures.

[4] = system: cyclophosphamide-resistant L1210 and P-388 cell-lines; conditions: cited from earlier work
KBM-3/DOX = assay: cells; assay type: cell-based, human; conditions: human, kbm-3/dox cells
KBM-3/AMSA = assay: cells; assay type: cell-based, human; conditions: human, kbm-3/amsa cells
[5] = system: GM-CFC from normal human bone marrow

SMILES: CC(=O)OC(CCOP(=O)(NCCCl)NCCCl)OC(C)=O [Compound 22-F, 0-(3,3-Diacetatopropyl)-N-(2-chloroethyl)-N-(2chloroethyl)phosphorodiamide]
toxicity to L1210 cells, comparison in words [1]: much more potent than ASTA Z 7557
IC50 ([1]; Mus musculus, L1210, 72 h, read-out: ED50): 1.7 µg/mL (≈ 4.48 µM)

SMILES: COc1cccc2c1C(=O)c1c(O)c3c(c(O)c1C2=O)C[C@@](O)(C(=O)CO)C[C@@H]3O[C@H]1C[C@H](NP(=O)(NCCCl)OCCC(OC(C)=O)OC(C)=O)[C@H](O)[C@H](C)O1 (stereo partly drawn) [Compound C-3]
IC50 (L1210 leukemia cells [2]): 21 nM

SMILES: COc1cccc2c1C(=O)c1c(O)c3c(c(O)c1C2=O)C[C@@](O)(C(C)=O)C[C@@H]3O[C@H]1C[C@H](NP(=O)(NCCCl)OCCC(OC(C)=O)OC(C)=O)[C@H](O)[C@H](C)O1 (stereo partly drawn) [Compound C-4]
IC50 (L1210 leukemia cells [2]): 25 nM

SMILES: COc1cccc2c1C(=O)c1c(O)c3c(c(O)c1C2=O)C[C@@](O)(C(=O)CO)C[C@@H]3O[C@H]1C[C@H](NP(=O)(NCCCl)OCCC(OC(=O)C(C)(C)C)OC(=O)C(C)(C)C)[C@H](O)[C@H](C)O1 (stereo partly drawn) [Compound C-7]
IC50 (L1210 leukemia cells [2]): 35 nM

SMILES: COc1cccc2c1C(=O)c1c(O)c3c(c(O)c1C2=O)C[C@@](O)(C(C)=O)C[C@@H]3O[C@H]1C[C@H](NP(=O)(NCCCl)OCCC(OC(=O)C(C)(C)C)OC(=O)C(C)(C)C)[C@H](O)[C@H](C)O1 (stereo partly drawn) [Compound C-8]
IC50 (L1210 leukemia cells [2]): 30 nM

IC50 (L1210 leukemia cells [3]): 1400 nM
SMILES: CC(=O)OC(CCOP(N)(=O)OC[C@@H]1CC[C@H](n2ccc(=O)[nH]c2=O)O1)OC(C)=O (stereo partly drawn) [Compound D-1]

IC50 (L1210 leukemia cells [3]): 700 nM
SMILES: CC(C)(C)C(=O)OC(CCOP(N)(=O)OC[C@@H]1CC[C@H](n2ccc(=O)[nH]c2=O)O1)OC(=O)C(C)(C)C (stereo partly drawn) [Compound D-2]

IC50 (L1210 leukemia cells [3]): 1300 nM
SMILES: CC(=O)OC(CCOP(N)(=O)OC[C@@H]1CC[C@H](n2cc(C)c(=O)[nH]c2=O)O1)OC(C)=O (stereo partly drawn) [Compound D-3]

IC50 (L1210 leukemia cells [3]): 1600 nM
SMILES: Cc1cn([C@H]2CC[C@@H](COP(N)(=O)OCCC(OC(=O)C(C)(C)C)OC(=O)C(C)(C)C)O2)c(=O)[nH]c1=O (stereo partly drawn) [Compound D-4]

SMILES: N#CN [cyanamide]
effect on cytotoxicity of 4-hydroperoxycyclophosphamide and ASTA Z 7557 [4]: potentiate the cytotoxicity

SMILES: CCN(CC)C(=S)S [diethyl dithiocarbamate]
effect on cytotoxicity of 4-hydroperoxycyclophosphamide and ASTA Z 7557 ([4]; cyclophosphamide-resistant L1210 and P-388): potentiate the cytotoxicity

SMILES: CCN(CC)C(=S)SSC(=S)N(CC)CC [disulfiram]
effect on cytotoxicity of 4-hydroperoxycyclophosphamide and ASTA Z 7557 [4]: potentiate the cytotoxicity
sensitization of resistant L1210 cell-line [4]: rendered drug-sensitive

SMILES: COc1cccc2c1C(=O)c1c(O)c3c(c(O)c1C2=O)C[C@@](O)(C(=O)CO)C[C@@H]3O[C@H]1C[C@H](N)[C@H](O)[C@H](C)O1 [doxorubicin, reference compound]
resistance of subline to doxorubicin (KBM-3/DOX): 100 fold

SMILES: CCOP(=O)(CCC=O)c1ccccc1 (stereo not drawn) [ethylphenyl(2-formylethyl) phosphinate]
effect on cytotoxicity of 4-hydroperoxycyclophosphamide and ASTA Z 7557 [4]: potentiate the cytotoxicity

SMILES: COc1cc(NS(C)(=O)=O)ccc1Nc1c2ccccc2nc2ccccc12 [m-AMSA, 4'-(9-acridinylamino)-3-methanesulfon-m-amisidide, reference compound]
resistance of subline to m-AMSA (KBM-3/AMSA): 130 fold
GM-CFC recovery kinetics / progenitor sparing, in words [5]: nonselective killing of mature (GM-CFC) and primitive (pluripotent) myeloid progenitor cells
